These results are taken from patent EP2029580B1, “NOVEL INDOL-PYRROL DERIVATIVES FOR THE TREATMENT OF PROLIFERATIVE AND INFLAMMATORY DISEASES” (ScheBo Biotech AG, priority 2006, dated 2007).

Read-outs that look alike come from different tables or passages of the source.

One assay has as its system NK1. As to the kind of experiment: XTT cell proliferation inhibition, NK1. The class given is cell-based, Ratten. To be noted: NK1, without pyruvate in the medium; read-out: IC50 ohne Pyrovat. From the text:
(§1) Die Substanzen der Beispiele 2.1 bis 2.3 wurden an verschiedenen Zelllinien in An- und Abwesenheit von Pyruvat im Nährmedium auf ihre proliferationshemmende Wirkung getestet. Die Substanzen wurden jeweils in DMSO gelöst. Anschließend wurde der Wirkstoff in acht Konzentrationsintervallen getestet. Der Berechnung der IC50-Werte lagen in jeder Konzentration acht Einzelwertbestimmungen zugrunde. Der IC50-Wert gibt die Wirkstoffkonzentration an, bei der im Vergleich zur Kontrollgruppe, die ausschließlich mit dem Lösungsmittel DMSO behandelt wurde, eine 50%ige Hemmung der Zellproliferation vorlag.

Another assay deals with BxPC-3. Kind of assay: XTT cell proliferation inhibition, BxPC-3. The class given is cell-based, humane.
Excerpt: as §1
A general note: Formazan colour is commonly taken as a measure of viable cells.

The next assay deals with MDA-MB-453. Kind of assay: XTT cell proliferation inhibition, MDA-MB-453. It is filed as cell-based, humane. Conditions: Homo sapiens.
Excerpt: as §1

The next assay deals with MCF-7. As to the kind of experiment: XTT cell proliferation inhibition, MCF-7. It is filed as cell-based, humane.
Excerpt: as §1

For assay [1], the system named is Ovarialkarzinom (OVXF 550). As to the kind of experiment: Colony assay in soft agar, ovarian carcinoma OVXF 550. It is filed as cell-based, menschlichen. An excerpt: (§2) Im Kolonie-Assay werden Tumorstammzellen von verschiedenen menschlichen Tumorentitäten in Softagar kultiviert und die Ausbildung von Tumorkolonien in An- und Abwesenheiten von der erfindungsgemäßen Substanz (Beispiel 2.1, ggf. als Malat der Beispiel 2.2 oder 2.3) ausgezählt. Insgesamt wurde die Substanz an 25 verschiedenen Tumormodellen getestet. Zu den Tumormodellen gehörten Colon-, Pankreas- und Magenkarzinome, kleinzellige und nicht kleinzellige Lungentumore, Brust-, Ovar- und Nierenkarzinome sowie Melanome. Das breite Spektrum von verschiedenen Tumorentitäten sowie die große Anzahl von Modellen ermöglichen nach der Zellkultur eine erneute Prüfung der Wirksamkeit der Substanz und geben erste Hinweise darauf, ob die Substanz Wirkungsselektivität für bestimmte Tumorentitäten besitzt.
Im gleichen Kolonie-Assay und unter gleichen experimentellen Bedingungen wurden für die erfindungsgemäße Substanz (5-[5-Fluoro-2-oxo-1,2-dihydro-indol-(3Z)-ylidenemythyl]-2,4-dimethyl-1H-pyrrole-3-carboxylic acid (2-diethylamino-ethoxy)-amide (vorzugsweise das Salz der Äpfelsäure, Malate) folgende Werte gefunden: OVXF 550: IC50 = […], IC70 = 21,6 µM

Another assay relates to HT-29. Kind of assay: XTT cell proliferation inhibition, HT-29. The class given is cell-based, humane. Conditions: read-out: IC50 ohne Pyrovat.
Excerpt: as §1

The test system of a further assay is Wi-38. Kind of assay: XTT cell proliferation inhibition, Wi-38. The class given is cell-based, humane. To be noted: Homo sapiens; Wi-38, with pyruvate in the medium; read-out: IC50 (XTT) mit Pyrovat.
Excerpt: as §1

Assay [2] concerns nicht kleinzelliges Lungentumormodell. As to the kind of experiment: Colony assay in soft agar, non-small-cell lung tumour model. The class given is cell-based, menschlichen. To be noted: most sensitive model.
Excerpt: as §2
(§3) Die Ergebnisse sind in der Figur 1 dargestellt (graphische Analyse der Mittelwerte für die Substanz basierend auf den IC70-Werten). Die Balken stellen die IC70-Konzentrationen im Verhältnis zum Mittelwerte aller IC70-Werte dar. Bei Balken nach links ist der IC70-Wert für das betreffende Modell niedriger als der Mittelwert der IC70-Werte aller Modelle, d.h. diese Modelle sind sensitiver im Vergleich zum Durchschnitt aller Modelle. Balken nach rechts bedeuten höhere IC70-Werte als der Durchschnitt der Modelle und damit eine geringere Sensitivität.

In the next assay the test system is KBV-600. Kind of assay: XTT cell proliferation inhibition, KBV-600. It is filed as cell-based. To be noted: KBV-600 (cultured with 600 ng/ml Vinblastin), without pyruvate in the medium; read-out: IC50 ohne Pyrovat.
Excerpt: as §1

Assay [3] has as its system 25 verschiedenen Tumormodellen. Kind of assay: Colony assay in soft agar, 25 tumour models. The class given is cell-based, menschlichen.
Excerpt: as §2, §3

In a further assay the test system is Brusttumormodell. Kind of assay: Colony assay in soft agar, breast tumour model. Conditions: least sensitive model. The class given is cell-based, menschlichen.
Excerpt: as §2, §3

A further assay deals with verschiedenen Zelllinien. Kind of assay: Cell culture proliferation inhibition, summary over all cell lines. It is filed as cell-based. To be noted: span over the cell lines of Table 1; read-out: IC50-Werte.
Excerpt: as §1

Regarding `CCN(CC)CCONC(=O)c1c(C)[nH]c(/C=C2\C(=O)Nc3ccc(F)cc32)c1C` [Beispiel 2.1, 5-[5-Fluoro-2-oxo-1,2-dihydro-indol-(3Z)-ylidenemethyl]-2,4-dimethyl-1H-pyrrole-3-carboxylic acid (2-diethylamino-ethoxy)-amide], the 50% inhibitory concentration (IC50) (as a rule, the concentration that inhibits the measured activity by half) turned out to be 2 µM in the assay with NK1; 1.3 µM in the assay on BxPC-3 (Homo sapiens, BxPC-3, with pyruvate in the medium, read-out: IC50 (XTT) mit Pyrovat); 2 µM in the assay with BxPC-3 (Homo sapiens, BxPC-3, without pyruvate in the medium, read-out: IC50 ohne Pyrovat); 11 µM in the assay on MDA-MB-453 (MDA-MB-453, with pyruvate in the medium, read-out: IC50 (XTT) mit Pyrovat); 7 µM in the assay with MDA-MB-453 (MDA-MB-453, without pyruvate in the medium, read-out: IC50 ohne Pyrovat); 11 µM with MCF-7 (Homo sapiens, MCF7, MCF-7, with pyruvate in the medium, read-out: IC50 (XTT) mit Pyrovat). The IC50 worked out at 8 µM in the assay on MCF-7 (Homo sapiens, MCF7, MCF-7, without pyruvate in the medium, read-out: IC50 ohne Pyrovat); 16.7 µM in assay [1] (substance preferably as malate salt); 3.5 µM in the assay on HT-29 (Homo sapiens, HT-29, without pyruvate in the medium); 11 µM in the assay on Wi-38; 4 µM in assay [2]; 5 µM in the assay with KBV-600. Further, the IC50 is 15 µM in assay [3] (mean over all 25 tumour models, read-out: mittlere IC50-Wert) and 30 µM in the assay on Brusttumormodell (read-out: höchste IC50-Wert). The IC70 in [1] is recorded as 21,6 µM. Besides, the IC70-Wert in assay [2] amounted to 6 µM; in the assay with Brusttumormodell it was 40 µM. For the same compound, in [3] (all 25 models), the “Hemmung der Koloniebildung” value is “Dosis-abhängigen Hemmung der Koloniebildung”. For the same compound, the “mittlere IC70-Wert” value in assay [3] (mean over all 25 tumour models) is recorded as 20 µM.
For the compound `CCN(CC)CCONC(=O)c1c(C)[nH]c(/C=C2\C(=O)Nc3ccc(F)cc32)c1C` [Beispiel 2.2, N-[2-(diethylamino)ethoxy]-5-[(Z)-(5-Fluoro-1,2-dihydro-2-oxo-3H-indol-3-ylidene)methyl]-2,4-dimethyl-1H-pyrrole-3-carboxamide, (2S)-hydroxybutanedionate (1:0,5)], the 50% inhibitory concentration (IC50) in the assay on BxPC-3 (BxPC-3, with pyruvate in the medium, read-out: IC50 (XTT) mit Pyrovat) was 2 µM; in the assay on BxPC-3 (BxPC-3, without pyruvate in the medium, read-out: IC50 ohne Pyrovat), 2 µM; with MDA-MB-453 (MDA-MB-453, MDA-MB-453, with pyruvate in the medium, read-out: IC50 (XTT) mit Pyrovat) it was 8 µM; in the assay on HT-29 (Homo sapiens, HT-29, HT-29, without pyruvate in the medium) it was 3 µM.
`CCN(CC)CCONC(=O)c1c(C)[nH]c(/C=C2\C(=O)Nc3ccc(F)cc32)c1C` [Beispiel 2.3, N-[2-(diethylamino)ethoxy]-5-[(Z)-(5-Fluoro-1,2-dihydro-2-oxo-3H-indol-3-ylidene)methyl]-2,4-dimethyl-1H-pyrrole-3-carboxamide, (2S)-hydroxybutanedionate (1:1)]: the IC50 in the assay on NK1 worked out at 4 µM; with MCF-7 (MCF-7, with pyruvate in the medium, read-out: IC50 (XTT) mit Pyrovat), 9 µM; with MCF-7 (MCF-7, without pyruvate in the medium, read-out: IC50 ohne Pyrovat), 10 µM; with HT-29 (HT-29, without pyruvate in the medium), 3 µM.
With `CCN(CC)CCONC(=O)c1c(C)[nH]c(/C=C2\C(=O)Nc3ccc(F)cc32)c1C` [SO 272], the IC50 with verschiedenen Zelllinien lay within 1 to 11 µM.
`CCN(CC)CCNC(=O)c1c(C)[nH]c(/C=C2\C(=O)Nc3ccc(F)cc32)c1C` [SU11248, 5-[5-Fluoro-2-oxo-1,2-dihydroindol-(3Z)-ylidenemethyl]-2,4-dimethyl-1H-pyrrole-3-carboxylic Acid (2-Diethylaminoethyl)amide, reference compound]: in assay [1], inhibition was half-maximal at 18 µM (IC50) and the IC70 was 26,7 µM.
